Source: patent US11814367B2, “Inhibitors of glycogen synthase 1 (GYS1) and methods of use thereof” (Maze Therapeutics, Inc., priority 2021, dated 2023)

How the values were obtained:
[1] = tested on: hGYS1 enzyme / glycogen synthesis in HeLa cells; test: GYS1 cell based assay (glycogen synthesis, Glucose-glo); design: species or system human; settings: Homo sapiens, HeLa, 24 h, 24 h incubation, 20 mM glucose, geometric mean of at least 2 runs
Outline: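 HeLa cells starved 24 h in medium containing only 1× Glutamax were plated onto compound in medium with 20 mM glucose (1% DMSO final) for 24 h, 37 °C, 5% CO2. Acid lysates were Tris-quenched, glucoamylase-digested (pH 5.3, 1 h, 37 °C) and read by Glucose-glo luminescence. IC50 came from Hill fits, as geometric mean of ≥2 runs.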

[2] = biological target: hGYS2 enzyme (recombinant hGYS2/GN1 protein) (Homo sapiens (Human), UniProt P54840); test: GYS2 coupled enzyme assay (PK/LDH); format: biochemical; settings: geometric mean of at least 2 assay runs on separate days, read-out: Avg_IC50
Outline: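 Recombinant hGYS2/GN1 (200 nM) with 2 mM UDP-glucose, 0.2% rabbit liver glycogen, 2 mM glucose-6-phosphate; UDP coupled via PK/LDH (2 mM PEP, 0.6 mM NADH). Buffer 50 mM Tris pH 7.5, 2 mM MgCl2, 100 mM KCl, 2.5% DMSO. A340 slope over 10 min; IC50 from Hill fit of duplicates.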

[3] = biological target: hGYS1 enzyme (recombinant hGYS1/GN1 protein) (Homo sapiens (Human), UniProt P13807); test: GYS1 coupled enzyme assay (PK/LDH); format: biochemical; settings: hGYS1/GN1 50 nM, UDP-Glucose 0.8 mM, G6P 1 mM; geometric mean of at least 2 runs
Sequence of hGYS1 enzyme (recombinant hGYS1/GN1 protein) (P13807 whole entry): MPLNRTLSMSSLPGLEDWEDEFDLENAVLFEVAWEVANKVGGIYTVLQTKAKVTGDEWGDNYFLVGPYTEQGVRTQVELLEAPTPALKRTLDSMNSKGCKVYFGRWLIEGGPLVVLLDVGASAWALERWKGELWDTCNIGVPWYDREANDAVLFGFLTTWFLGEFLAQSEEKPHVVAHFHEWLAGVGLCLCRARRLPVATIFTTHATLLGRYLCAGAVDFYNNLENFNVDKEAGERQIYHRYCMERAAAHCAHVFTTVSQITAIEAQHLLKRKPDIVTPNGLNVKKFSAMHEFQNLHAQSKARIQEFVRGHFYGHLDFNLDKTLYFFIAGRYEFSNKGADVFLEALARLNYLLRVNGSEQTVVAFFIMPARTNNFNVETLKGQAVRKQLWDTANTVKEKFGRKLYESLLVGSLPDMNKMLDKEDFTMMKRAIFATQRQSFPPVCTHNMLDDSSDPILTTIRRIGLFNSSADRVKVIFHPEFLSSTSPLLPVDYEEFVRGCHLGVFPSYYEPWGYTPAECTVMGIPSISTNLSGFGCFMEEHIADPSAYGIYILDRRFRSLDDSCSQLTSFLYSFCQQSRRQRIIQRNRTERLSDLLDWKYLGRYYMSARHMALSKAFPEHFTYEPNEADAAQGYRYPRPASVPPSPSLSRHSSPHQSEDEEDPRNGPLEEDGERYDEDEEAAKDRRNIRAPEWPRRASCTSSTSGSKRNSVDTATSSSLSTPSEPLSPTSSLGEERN
Sequence of hGYS1 enzyme (recombinant hGYS1/GN1 protein) (P46976 whole entry partner): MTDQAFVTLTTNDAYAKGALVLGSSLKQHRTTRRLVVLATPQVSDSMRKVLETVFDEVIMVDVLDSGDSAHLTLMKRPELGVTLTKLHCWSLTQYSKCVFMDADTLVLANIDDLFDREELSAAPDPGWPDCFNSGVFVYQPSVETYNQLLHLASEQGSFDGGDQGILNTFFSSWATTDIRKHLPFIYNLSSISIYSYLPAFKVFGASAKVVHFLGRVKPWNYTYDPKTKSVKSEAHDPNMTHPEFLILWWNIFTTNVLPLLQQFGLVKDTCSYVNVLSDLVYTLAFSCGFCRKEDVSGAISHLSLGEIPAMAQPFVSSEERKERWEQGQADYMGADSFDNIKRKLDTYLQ

Sequence of hGYS2 enzyme (recombinant hGYS2/GN1 protein) (P54840 whole entry): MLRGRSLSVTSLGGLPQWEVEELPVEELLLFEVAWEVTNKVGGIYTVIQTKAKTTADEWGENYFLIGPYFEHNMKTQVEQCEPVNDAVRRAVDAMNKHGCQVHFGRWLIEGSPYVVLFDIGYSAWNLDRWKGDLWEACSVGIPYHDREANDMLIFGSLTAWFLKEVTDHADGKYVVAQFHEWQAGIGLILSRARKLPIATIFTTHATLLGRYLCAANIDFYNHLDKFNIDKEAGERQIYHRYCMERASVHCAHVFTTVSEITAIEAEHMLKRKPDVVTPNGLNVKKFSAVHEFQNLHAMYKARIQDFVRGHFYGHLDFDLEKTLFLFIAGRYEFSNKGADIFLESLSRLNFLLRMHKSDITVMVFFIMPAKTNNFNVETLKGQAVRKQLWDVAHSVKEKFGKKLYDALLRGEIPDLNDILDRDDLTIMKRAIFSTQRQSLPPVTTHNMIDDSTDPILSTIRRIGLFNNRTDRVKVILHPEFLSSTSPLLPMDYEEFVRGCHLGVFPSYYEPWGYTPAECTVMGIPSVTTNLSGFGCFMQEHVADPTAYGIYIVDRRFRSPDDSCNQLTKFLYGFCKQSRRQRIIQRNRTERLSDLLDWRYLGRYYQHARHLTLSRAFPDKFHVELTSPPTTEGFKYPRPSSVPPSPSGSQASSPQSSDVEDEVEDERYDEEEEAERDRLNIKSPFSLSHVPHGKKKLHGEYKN
Sequence of hGYS2 enzyme (recombinant hGYS2/GN1 protein) (P46976 whole entry partner): as the sequence (P46976 whole entry partner) above

IC50 [1]	IC50 [2]	IC50 [3]	Structure (SMILES)
1140 nM	> 100000 nM	82 nM	CC(C)c1ccc([C@@H](NC(=O)[C@@H]2C[C@@H](F)CN2C(=O)Cn2nncc2CN(C)C)c2ccccc2)cc1 [Compound 241, (2S,4R)-1-(2-{5-[(dimethylamino)methyl]-1H-1,2,3-triazol-1-yl}acetyl)-4-fluoro-N-[(S)-phenyl[4-(propan-2-yl)phenyl]methyl]pyrrolidine-2-carboxamide]
1140 nM	> 100000 nM	79 nM	CC(C)c1ccc([C@@H](NC(=O)[C@@H]2C[C@@H](F)CN2C(=O)Cc2nnc(CN(C)C)o2)c2ccccc2)cc1 [Compound 242, (2S,4R)-1-(2-{5-[(dimethylamino)methyl]-1,3,4-oxadiazol-2-yl}acetyl)-4-fluoro-N-[(S)-phenyl[4-(propan-2-yl)phenyl]methyl]pyrrolidine-2-carboxamide]
2250 nM	> 100000 nM	86 nM	CC(=O)NCc1cnnn1CC(=O)N1C[C@H](F)C[C@H]1C(=O)N[C@@H](c1ccccc1)c1ccc(C(C)C)cc1 [Compound 243, (2S,4R)-1-{2-[5-(acetamidomethyl)-1H-1,2,3-triazol-1-yl]acetyl}-4-fluoro-N-[(S)-phenyl[4-(propan-2-yl)phenyl]methyl]pyrrolidine-2-carboxamide]
1800 nM	> 100000 nM	77 nM	CC(C)c1ccc([C@@H](NC(=O)[C@@H]2C[C@@H](F)CN2C(=O)Cc2cnn[nH]2)c2ccccc2)nc1 [Compound 244, (2S,4R)-1-(2-(1H-1,2,3-triazol-5-yl)acetyl)-4-fluoro-N-((S)-(5-isopropylpyridin-2-yl)(phenyl)methyl)pyrrolidine-2-carboxamide]
620 nM	> 100000 nM	33 nM	Cc1n[nH]c(C)c1CC(=O)N1C[C@H](F)C[C@H]1C(=O)N[C@@H](c1ccccc1)c1ccc(C(C)C)cn1 [Compound 246, (2S,4R)-1-[2-(3,5-dimethyl-1H-pyrazol-4-yl)acetyl]-4-fluoro-N-[(S)-phenyl[5-(propan-2-yl)pyridin-2-yl]methyl]pyrrolidine-2-carboxamide]
180 nM	> 100000 nM	10 nM	CC(C)c1ccc([C@@H](NC(=O)[C@@H]2C[C@@H](F)CN2C(=O)Cc2cccc3ncccc23)c2ccccc2)nc1 [Compound 247, (2S,4R)-4-fluoro-N-[(S)-phenyl[5-(propan-2-yl)pyridin-2-yl]methyl]-1-[2-(quinolin-5-yl)acetyl]pyrrolidine-2-carboxamide]
200 nM	> 100000 nM	12 nM	CC(C)c1ccc([C@@H](NC(=O)[C@@H]2C[C@@H](F)CN2C(=O)Cn2cnc3ccccc32)c2ccccc2)nc1 [Compound 248, (2S,4R)-1-[2-(1H-1,3-benzodiazol-1-yl)acetyl]-4-fluoro-N-[(S)-phenyl[5-(propan-2-yl)pyridin-2-yl]methy]pyrrolidine-2-carboxamide]
1150 nM	> 100000 nM	21 nM	Cc1cn(CC(=O)N2C[C@H](F)C[C@H]2C(=O)N[C@@H](c2ccccc2)c2ccc(C(C)C)cn2)c(=O)[nH]c1=O [Compound 249, (2S,4R)-4-fluoro-1-[2-(5-methyl-2,4-dioxo-1,2,3,4-tetrahydropyrimidin-1-yl)acetyl]-N-[(S)-phenyl[5-(propan-2-yl)pyridin-2-yl]methyl]pyrrolidine-2-carboxamide]
1270 nM	> 100000 nM	43 nM	CC(C)c1ccc([C@@H](NC(=O)[C@@H]2C[C@@H](F)CN2C(=O)CNC(=O)N(C)C)c2ccccc2)nc1 [Compound 250, (2S,4R)-1-{2-[(dimethylcarbamoyl)amino]acetyl}-4-fluoro-N-[(S)-phenyl[5-(propan-2-yl)pyridin-2-yl]methyl]pyrrolidine-2-carboxamide]
2480 nM	> 100000 nM	186 nM	CC(C)c1ccc([C@@H](NC(=O)[C@@H]2C[C@@H](F)CN2C(=O)Cn2cnnn2)c2ccccc2)nc1 [Compound 252, (2S,4R)-4-fluoro-N-[(S)-phenyl[5-(propan-2-yl)pyridin-2-yl]methyl}-1-[2-(1H-1,2,3-tetrazol-1-yl)acetyl]pyrrolidine-2-carboxamide]
1090 nM	> 100000 nM	67 nM	CC(C)c1ccc([C@@H](NC(=O)[C@@H]2C[C@@H](F)CN2C(=O)Cc2nnc(C(F)F)o2)c2ccccc2)nc1 [Compound 253, (2S,4R)-1-{2-[5-(difluoromethyl)-1,3,4-oxadiazol-2-yl]acetyl}-4-flouro-N-[(S)-phenyl[5-(propan-2-yl)pyridin-2-yl]methyl]pyrrolidine-2-carboxamide]
1230 nM	> 100000 nM	75 nM	CC(C)c1ccc([C@@H](NC(=O)[C@@H]2C[C@@H](F)CN2C(=O)Cn2nnnc2C(F)F)c2ccccc2)nc1 [Compound 254, (2S,4R)-1-{2-[5-(difluoromethyl)-1H-1,2,3-tetrazol-1-yl]acetyl}-4-fluoro-N-[(S)-phenyl[5-(propan-2-yl)pyridin-2-yl]methyl]pyrrolidine-2-carboxamide]
1010 nM	> 100000 nM	88 nM	CC(C)c1ccc([C@@H](NC(=O)[C@@H]2C[C@@H](F)CN2C(=O)Cn2nnc(C(F)(F)F)n2)c2ccccc2)nc1 [Compound 255, (2S,4R)-4-fluoro-N-[(S)-phenyl[5-(propan-2-yl)pyridin-2-yl]methyl]-1-{2-[5-(trifluoromethyl)-2H-1,2,3,4-tetrazol-2-yl]acetyl}pyrrolidine-2-carboxamide]
990 nM	> 100000 nM	39 nM	CC(C)c1ccc([C@@H](NC(=O)[C@@H]2C[C@@H](F)CN2C(=O)Cn2nnc(C(F)F)n2)c2ccccc2)nc1 [Compound 256, (2S,4R)-1-{2-[5-(difluoromethyl)-2H-1,2,3,4-tetrazol-2-yl]acetyl}-4-fluoro-N-[(S)-phenyl[5-(propan-2-yl)pyridin-2-yl]methyl]pyrrolidine-2-carboxamide]
240 nM	> 100000 nM	7 nM	Cc1ccc2c(CC(=O)N3C[C@H](F)C[C@H]3C(=O)N[C@@H](c3ccccc3)c3ccc(C(C)C)cn3)cccc2n1 [Compound 257, (2S,4R)-4-fluoro-1-[2-(2-methylquinolin-5-yl)acetyl]-N-[(S)-phenyl[5-(propan-2-yl)pyridin-2-yl]methyl]pyrrolidine-2-carboxamide]
740 nM	> 100000 nM	26 nM	CC(C)c1ccc([C@@H](NC(=O)[C@@H]2C[C@@H](F)CN2C(=O)Cc2cccn3c(=O)[nH]nc23)c2ccccc2)nc1 [Compound 258, (2S,4R)-4-fluoro-1-(2-{3-oxo-2H,3H-[1,2,4]triazolo[4,3-a]pyridin-8-yl}acetyl)-N-[(S)-phenyl[5-(propan-2-yl)pyridin-2-yl]methyl]pyrrolidine-2-carboxamide]
280 nM	> 100000 nM	15 nM	CC(C)c1ccc([C@@H](NC(=O)[C@@H]2C[C@@H](F)CN2C(=O)Cn2ncc(N(C)C)n2)c2ccccc2)nc1 [Compound 259, (2S,4R)-1-{2-[4-(dimethylamino)-2H-1,2,3-triazol-2-yl]acety}-4-fluoro-N-[(S)-phenyl[5-(propan-2-yl)pyridin-2-yl]methyl]pyrrolidine-2-carboxamide]
530 nM	> 100000 nM	35 nM	CC(C)c1ccc([C@@H](NC(=O)[C@@H]2C[C@@H](F)CN2C(=O)Cn2cc(N(C)C)nn2)c2ccccc2)nc1 [Compound 260, (2S,4R)-1-{2-[4-(dimethylamino)-1H-1,2,3-triazol-1-yl]acetyl}-4-fluoro-N-[(S)-phenyl[5-(propan-2-yl)pyridin-2-yl]methyl]pyrrolidine-2-carboxamide]
1800 nM	> 100000 nM	59 nM	CNC(=O)NCC(=O)N1C[C@H](F)C[C@H]1C(=O)N[C@@H](c1ccccc1)c1ccc(C(C)C)cn1 [Compound 261, (2S,4R)-4-fluoro-1-{2-[(methylcarbamoyl)amino]acetyl}-N-[(S)-phenyl[5-(propan-2-yl)pyridin-2-yl]methyl]pyrrolidine-2-carboxamide]
3630 nM	> 100000 nM	62 nM	CC(C)c1ccc([C@@H](NC(=O)[C@@H]2C[C@@H](F)CN2C(=O)CNC(N)=O)c2ccccc2)nc1 [Compound 262, (2S,4R)-1-[2-(carbamoylamino)acetyl]-4-fluoro-N-[(S)-phenyl[5-(propan-2-yl)pyridin-2-yl]methyl]pyrrolidine-2-carboxamide]
1950 nM	> 100000 nM	80 nM	CC(C)c1ccc([C@@H](NC(=O)[C@@H]2C[C@@H](F)CN2C(=O)Cc2nn(C)c(=O)[nH]2)c2ccccc2)nc1 [Compound 263, (2S,4R)-4-fluoro-1-[2-(1-methyl-5-oxo-4,5-dihydro-1H-1,2,4-triazol-3-yl)acetyl]-N-[(S)-phenyl[5-(propan-2-yl)pyridin-2-yl]methyl]pyrrolidine-2-carboxamide]
4290 nM	> 100000 nM	130 nM	CC(C)c1ccc([C@@H](NC(=O)[C@@H]2C[C@@H](F)CN2C(=O)Cc2n[nH]c(=O)n2C)c2ccccc2)nc1 [Compound 264, (2S,4R)-4-fluoro-1-[2-(4-methyl-5-oxo-4,5-dihydro-1H-1,2,4-triazol-3-yl)acetyl]-N-[(S)-phenyl[5-(propan-2-yl)pyridin-2-yl]methyl]pyrrolidine-2-carboxamide]
